The values below come from article PMC11951252 (RSC Advances, 2025).

Where “and” joins values, the source holds several entries; their conditions need not be identical. Identical values can stand only once.

For one assay, the system named is PC-3. The assay can be described thus: Antiproliferative MTT assay, PC-3. Format: cell-based. The following applies: Homo sapiens, PC-3, read-out: Antiproliferative activity IC50 ± SEM, PC-3. For orientation: Tetrazolium assays rely on reduction of a dye to a coloured formazan, in cell work by metabolically active cells.
In another assay the test system is MCF-7. Kind of assay: Antiproliferative MTT assay, MCF-7. It is filed as cell-based, human. The conditions noted are these: for IC50: Homo sapiens, MCF7, read-out: Antiproliferative activity IC50 ± SEM, MCF-7.
For a further assay, the system named is HCT-116. The assay can be described thus: Antiproliferative MTT assay, HCT-116. The conditions noted are these: Homo sapiens, HCT-116, read-out: Antiproliferative activity IC50 ± SEM, HCT-116. It is filed as cell-based.
Assay [1] has as its system four human cancer cell lines (HCT-116, PC-3, MCF-7, MDAMB-231). Kind of assay: Antiproliferative MTT assay, average over four cancer cell lines. The conditions noted are these: for GI50: Homo sapiens, average IC50 of the four cancer cell lines. It is filed as cell-based.
In the next assay the test system is MDAMB-231. The assay can be described thus: Antiproliferative MTT assay, MDAMB-231. The conditions noted are these: for times more potent than sorafenib: MDAMB-231 breast cancer cell line. Format: cell-based, human.
Another assay deals with EGFR-TK (Homo sapiens, UniProt P00533). Kind of assay: EGFR inhibitory assay. The following applies: for IC50: EGFR IC50 ± SEM. Format: biochemical.
The target in the next assay is HER2-TK (Homo sapiens, UniProt P04626). Kind of assay: HER2 inhibitory assay. Format: biochemical.
For another assay, the system named is MDA-MB 231 cells. The assay can be described thus: Apoptosis induction analysis. It is filed as cell-based, human.
The test system of another assay is MDA-MB 231 cancer cells. The assay can be described thus: Cell cycle analysis. Format: cell-based, human.
A further assay has as its system BRAF^V600E. The conditions noted are these: read-out: BRAF^V600E IC50; cited from earlier work.

Chain of EGFR-TK (P00533 669-1210): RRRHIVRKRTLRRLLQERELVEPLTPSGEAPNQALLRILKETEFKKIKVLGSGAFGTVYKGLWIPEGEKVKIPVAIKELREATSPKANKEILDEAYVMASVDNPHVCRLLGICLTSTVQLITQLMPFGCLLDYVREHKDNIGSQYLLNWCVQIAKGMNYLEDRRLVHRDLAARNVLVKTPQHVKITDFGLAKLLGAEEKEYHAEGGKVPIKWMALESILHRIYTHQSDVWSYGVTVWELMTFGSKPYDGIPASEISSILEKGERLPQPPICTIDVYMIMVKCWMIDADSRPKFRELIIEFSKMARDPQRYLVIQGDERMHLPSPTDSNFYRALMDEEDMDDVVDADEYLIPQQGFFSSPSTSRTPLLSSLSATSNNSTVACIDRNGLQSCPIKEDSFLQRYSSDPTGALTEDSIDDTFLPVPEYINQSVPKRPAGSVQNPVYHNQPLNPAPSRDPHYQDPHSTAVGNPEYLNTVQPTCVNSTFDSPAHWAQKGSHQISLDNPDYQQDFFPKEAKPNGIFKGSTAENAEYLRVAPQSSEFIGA
Chain of HER2-TK (P04626 676-1255 limits assumed): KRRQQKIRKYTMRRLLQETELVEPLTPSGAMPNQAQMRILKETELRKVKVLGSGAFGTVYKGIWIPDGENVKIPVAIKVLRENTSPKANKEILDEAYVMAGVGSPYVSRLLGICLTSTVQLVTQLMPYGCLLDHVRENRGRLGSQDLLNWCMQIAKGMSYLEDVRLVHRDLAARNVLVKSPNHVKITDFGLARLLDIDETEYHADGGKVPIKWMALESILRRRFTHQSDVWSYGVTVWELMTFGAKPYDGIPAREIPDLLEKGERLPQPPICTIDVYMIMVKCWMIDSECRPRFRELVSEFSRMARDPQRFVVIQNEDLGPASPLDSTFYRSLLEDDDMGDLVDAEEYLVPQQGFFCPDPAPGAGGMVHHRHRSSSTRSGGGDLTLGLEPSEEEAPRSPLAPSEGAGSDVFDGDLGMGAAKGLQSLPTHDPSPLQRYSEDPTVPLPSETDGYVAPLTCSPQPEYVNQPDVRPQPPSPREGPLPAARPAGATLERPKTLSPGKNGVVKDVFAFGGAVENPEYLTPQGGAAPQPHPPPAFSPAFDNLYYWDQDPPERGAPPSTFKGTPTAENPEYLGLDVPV

Take `COc1ccc(N2CCN(CC(=O)Nc3ccc(C(=O)C=Cc4ccco4)cc3)CC2)cc1` [4g, N-(4-(3-(Furan-2-yl)acryloyl)phenyl)-2-(4-(4-methoxyphenyl)piperazin-1-yl)acetamide]: the figures for the IC50 in the assay on PC-3, with MCF-7 and with HCT-116 were 14.2 ± 1.2 µM, 9.37 ± 0.7 µM and 17.3 ± 1.4 µM, respectively. In the assay with MCF-7, the “fold less potent than 4n, MCF-7” value is 2 fold. The compound also showed a GI50 in assay [1] of 12 µM. Besides, the “fold less potent than compound 4n (GI50)” value in [1] (ratio of GI50 values) is recorded as 1.7. In addition, in the assay with MDAMB-231, the “fold less potent than 4n, MDAMB-231” value is listed as 2 fold.

For the compound `O=C(CN1CCN(c2ccc(Cl)cc2)CC1)Nc1ccc(C(=O)C=Cc2ccco2)cc1` [4n, 2-(4-(4-Chlorophenyl)piperazin-1-yl)-N-(4-(3-(furan-2-yl)acryloyl)phenyl)acetamide], the “times less effective as EGFR inhibitors than erlotinib” value on EGFR-TK is listed as “at least 10 times”. For the same compound, the IC50 is 0.799 µM and 1.78 µM against EGFR-TK; 9.08 ± 0.8 µM in the assay with PC-3; 6.94 ± 0.4 µM in the assay on MCF-7; 8.67 ± 0.9 µM in the assay with HCT-116; 0.505 µM against HER2-TK (HER2 IC50 ± SEM, Table 3). Besides, the GI50 in assay [1] was 7 µM. In the assay with MDAMB-231, the “times more potent than sorafenib” value came out at 1.6 times.

Compound `COc1ccc(N2CCN(CC(=O)Nc3ccc(C4=NN(C(C)=O)C(c5cc(OC)c(OC)c(OC)c5)C4)cc3)CC2)cc1` (centres unmarked) [5d, N-(4-(1-Acetyl-5-(3,4,5-trimethoxyphenyl)-4,5-dihydro-1H-pyrazol-3-yl)phenyl)-2-(4-(4-methoxyphenyl)piperazin-1-yl)acetamide] showed an IC50 at EGFR-TK of 0.209 µM. The IC50 in the assay on PC-3 was found to be 13 ± 1 µM. Moreover, in the assay on MCF-7, the IC50 turned out to be 5.05 ± 0.4 µM. Besides, the IC50 in the assay with HCT-116 was determined as 6.47 ± 0.4 µM. The same compound gave an IC50 against HER2-TK (HER2 IC50, as printed in text) of 0.061 µM. The same compound had an IC50 against HER2-TK (HER2 IC50 ± SEM, Table 3) of 0.101 µM. Also, the GI50 in assay [1] came to 7 µM. Also, the “times more potent than sorafenib” value in the assay on MDAMB-231 was found to be 2.7 times. For the same compound, the “early apoptosis enhanced more than late apoptosis, fold” value in the assay on MDA-MB 231 cells (MDA-MB 231) was found to be 5 fold. In the assay with MDA-MB 231 cells (MDA-MB cancer cells, 24 h), the “Apoptosis Early” value turned out to be 17.13, the “Apoptosis Late” value is listed as 8.89, the “Apoptosis Total” value was determined as 29.59 and the Necrosis was 3.57. In addition, in the assay with MDA-MB 231 cancer cells (MDA-MB 231, 24 h, 25 μM), the “Cell cycle analysis, Comment” value was “Cell cycle arrest @ G1”; the “DNA content % G0–G1” value came out at 78.53%; the “DNA content % G2/M” value turned out to be 3.36%; the “DNA content % S” value was determined as 18.11%. The “percentage of pre-G1 apoptosis” value with MDA-MB 231 cancer cells (MDA-MB 231, 24 h incubation) amounted to 78.53%.

As for `COc1ccc(N2CCN(CC(=O)Nc3ccc(C4=NN(C(C)=O)C(c5ccco5)C4)cc3)CC2)cc1` (centres unmarked) [5g, N-(4-(1-Acetyl-5-(furan-2-yl)-4,5-dihydro-1H-pyrazol-3-yl)phenyl)-2-(4-(4-methoxy-phenyl)piperazin-1-yl)acetamide], at EGFR-TK, the “times less effective as EGFR inhibitors than erlotinib” value is listed as “at least 10 times”. Further, the half-inhibitory concentration (IC50) against EGFR-TK was 2.38 µM; in the assay on PC-3 it was 7.48 ± 0.6 µM; with MCF-7, 3.78 ± 0.2 µM; with HCT-116, 8.06 ± 0.7 µM; against HER2-TK (HER2 IC50 ± SEM, Table 3), 1.54 µM. The 50% growth inhibitory concentration (GI50) in assay [1] came out at 6 µM.

With `C#Cc1cccc(Nc2ncnc3cc(OCCOC)c(OCCOC)cc23)c1` [Erlotinib], the concentration for half-maximal inhibition (IC50) in the assay on BRAF^V600E was […].

One may read the IC50 as the concentration at which inhibition is half-maximal. A word on the GI50: it is the concentration that inhibits growth by half. A high value points to lower sensitivity of the cells.
